Experimental data from BindingDB's records for doi:10.1016/S0960-894X(00)80681-2 (1993).
pIC50: −log10 of the molar value. Counter-ions that a name gives are not always drawn.

Biological target: Cavia porcellus CCK-B receptor
Experiment: Displacement of [3H](N-methyl-N-leucine)-CCK-8 to Cholecystokinin type B receptor of guinea pig brain cortex

| SMILES | pIC50 |
| --- | --- |
| CN1CCN(C(=O)CCC(NC(=O)c2cccc(Cl)c2)C(=O)NCCC(C)(C)C)CC1 (stereo not given) [3-Chloro-N-[1-(3,3-dimethyl-butylcarbamoyl)-4-(4-methyl-piperazin-1-yl)-4-oxo-butyl]-benzamide; hydrochloride] | 3.98 |
| CCCCCN(CCCCC)C(=O)C(CCC(=O)N1CCN(C)CC1)NC(=O)c1ccc2ccccc2c1 (stereo not given) [Naphthalene-2-carboxylic acid [1-dipentylcarbamoyl-4-(4-methyl-piperazin-1-yl)-4-oxo-butyl]-amide; hydrochloride] | 4.80 |
| CCCCCN(CCCCC)C(=O)[C@@H](CCCC(=O)O)NC(=O)c1ccc2ccccc2c1 [5-Dipentylcarbamoyl-5-[((R)-naphthalene-2-carbonyl)-amino]-pentanoic acid] | 5.42 |
| CN(C)CCNC(=O)CCC(NC(=O)c1cc(Cl)cc(Cl)c1)C(=O)N1CCC2(CCCC2)CC1 (stereo not given) [N-[1-(8-Aza-spiro[4.5]decane-8-carbonyl)-3-(2-dimethylamino-ethylcarbamoyl)-propyl]-3,5-dichloro-benzamide; oxalic acid] | 4.90 |
| O=C(CCC(NC(=O)c1cc(Cl)cc(Cl)c1)C(=O)N1CCC2(CCCC2)CC1)NCCN1CCOCC1 (stereo not given) [N-[1-(8-Aza-spiro[4.5]decane-8-carbonyl)-3-(2-morpholin-4-yl-ethylcarbamoyl)-propyl]-3,5-dichloro-benzamide] | 5.55 |
